What was measured:
HEK-293 cells = assay: Chemotaxis assay, HEK-293 cells; assay type: cell-based, human; settings: for cell migration in the presence of VN: HEK-293, VN 1 μg/ml + peptide 1 pM; for cell migration: HEK-293, peptide alone 1 pM
Method: (§1) Chemotaxis assay was performed as described (Degryse et al., 1999, 2001a, 2001b) with modified Boyden chambers. Filters (5 μm pore size, Neuro Probe, Gaithersburg, Md.) were treated with collagen I (100 μg/ml) and fibronectin (10 μg/ml, Roche).≈40-50,000 cells in serum-free DMEM were added to the upper well and the chemoattractants tested added to the lower well. When present, antibodies, or inhibitors were added in both wells. After overnight migration at 37° C., cells remaining on the upper surface of filters were scraped off and filters were fixed in methanol and stained in a solution of 10% (w/v) crystal violet in 20% (v/v) methanol. The experiments were performed at least twice in triplicate and the results, expressed as fold over control, are the mean ±SD of the number of cells counted in ten high power fields per filter. Random cell migration, i.e. migration in the absence of chemoattractant, was given the arbitrary value of 100%.

HEK-293-uPAR cells = assay: Chemotaxis assay, HEK-293-uPAR cells; assay type: cell-based, human; settings: HEK-293-uPAR; for cell migration in the presence of VN: VN 1 μg/ml + peptide 1 pM; for cell migration: peptide alone 1 pM
Method: as §1

[1] = test system: rat smooth muscle cells (RSMC); assay: Chemotaxis assay, rat smooth muscle cells; assay type: cell-based
Method: as §1

[2] = test system: human smooth muscle cells from the coronary artery (CASMC); assay: Chemotaxis assay, human coronary artery smooth muscle cells; assay type: cell-based
Method: as §1

[3] = test system: human smooth muscle cells from the aorta (AoSMC); assay: Chemotaxis assay, human aortic smooth muscle cells; assay type: cell-based
Method: as §1

uPAR-αvβ3 complexes = biological target: T1, uPAR-αvβ3 complexes (Homo sapiens, UniProt P05106+P06756); assay: Pull-down assay, 125I-suPAR with purified αvβ3 integrin; assay type: binding
T1 construct: purchased Chemicon (integrins); American Diagnostica (uPA)
T1 sequence (P06756 31-889 limits assumed): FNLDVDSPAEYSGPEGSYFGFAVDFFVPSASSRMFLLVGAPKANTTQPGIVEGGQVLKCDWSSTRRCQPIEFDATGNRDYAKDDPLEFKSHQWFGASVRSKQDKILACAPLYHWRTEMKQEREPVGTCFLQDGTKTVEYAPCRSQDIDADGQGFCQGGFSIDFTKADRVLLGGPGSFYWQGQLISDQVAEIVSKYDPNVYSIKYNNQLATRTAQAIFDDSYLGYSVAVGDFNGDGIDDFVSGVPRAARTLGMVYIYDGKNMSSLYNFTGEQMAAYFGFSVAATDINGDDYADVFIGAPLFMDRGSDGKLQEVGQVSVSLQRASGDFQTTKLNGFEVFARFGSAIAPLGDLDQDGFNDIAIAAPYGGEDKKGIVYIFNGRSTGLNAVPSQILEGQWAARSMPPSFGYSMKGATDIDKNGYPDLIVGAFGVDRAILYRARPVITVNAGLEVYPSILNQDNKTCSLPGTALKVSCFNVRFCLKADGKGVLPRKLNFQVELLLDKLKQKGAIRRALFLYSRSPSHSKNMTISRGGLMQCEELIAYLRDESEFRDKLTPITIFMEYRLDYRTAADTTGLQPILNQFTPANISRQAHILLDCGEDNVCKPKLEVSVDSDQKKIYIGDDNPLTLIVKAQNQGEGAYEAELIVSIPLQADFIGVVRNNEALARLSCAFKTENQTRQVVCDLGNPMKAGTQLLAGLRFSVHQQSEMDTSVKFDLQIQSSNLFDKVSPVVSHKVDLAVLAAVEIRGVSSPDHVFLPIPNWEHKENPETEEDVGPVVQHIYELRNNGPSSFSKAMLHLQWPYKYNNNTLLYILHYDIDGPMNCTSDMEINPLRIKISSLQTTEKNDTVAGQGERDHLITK
T1 sequence (P06756 891-1048 limits assumed): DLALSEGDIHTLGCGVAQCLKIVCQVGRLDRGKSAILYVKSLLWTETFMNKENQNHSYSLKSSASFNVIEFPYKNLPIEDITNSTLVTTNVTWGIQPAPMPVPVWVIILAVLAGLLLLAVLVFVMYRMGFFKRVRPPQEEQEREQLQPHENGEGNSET
T1 sequence (P05106 27-788): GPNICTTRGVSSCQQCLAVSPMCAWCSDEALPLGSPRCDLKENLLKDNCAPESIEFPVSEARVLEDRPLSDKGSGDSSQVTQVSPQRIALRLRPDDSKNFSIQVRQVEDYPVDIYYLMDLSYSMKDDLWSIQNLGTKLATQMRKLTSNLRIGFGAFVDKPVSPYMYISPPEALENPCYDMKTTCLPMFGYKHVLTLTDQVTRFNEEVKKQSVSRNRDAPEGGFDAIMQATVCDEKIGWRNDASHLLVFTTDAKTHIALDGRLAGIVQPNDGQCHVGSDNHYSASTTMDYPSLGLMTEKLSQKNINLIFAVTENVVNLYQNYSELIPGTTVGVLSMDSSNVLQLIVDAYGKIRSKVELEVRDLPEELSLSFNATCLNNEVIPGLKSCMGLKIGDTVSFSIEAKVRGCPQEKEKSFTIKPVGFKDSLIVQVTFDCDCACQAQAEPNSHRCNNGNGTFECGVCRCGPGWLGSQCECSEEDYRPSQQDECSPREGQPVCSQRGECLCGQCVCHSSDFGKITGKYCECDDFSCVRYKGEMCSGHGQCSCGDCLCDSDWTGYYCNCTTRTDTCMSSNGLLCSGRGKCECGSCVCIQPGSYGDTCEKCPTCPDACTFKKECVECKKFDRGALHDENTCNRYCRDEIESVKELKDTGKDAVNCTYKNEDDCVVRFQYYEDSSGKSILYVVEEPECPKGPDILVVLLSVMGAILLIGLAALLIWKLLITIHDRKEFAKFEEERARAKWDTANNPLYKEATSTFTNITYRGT
Method: (§2) Soluble uPAR (suPAR) was radioiodinated (as for VN, see above) at a specific activity of 1.5×10^5 cpm/ng. A mix composed of 2 μg of either purified αvβ3 or α5β1 integrin, and […] of ^125I-suPAR was incubated for 4 hours at 4° C. in the absence (control) or in the presence of 4 μg of uPA with or without 5 μg of either D2A or D2A-Ala peptide in binding buffer, (RPMI plus 0.02% BSA, 10 mM HEPES pH 7.4, total volume 300 μl). Complexes were immunoprecipitated with 3 μg of anti-αvβ3 (LM609) or anti-α5β1 monoclonal antibody, and 60 μl of protein G-agarose beads (Amersham Biosciences), Beads were washed three times in binding buffer, extracted in reducing sample buffer, and proteins were fractionated by SDS-PAGE. Gels were analyzed by autoradiography and densitometry. Results are presented as percentage of relative density units normalized to uPA alone.

RSMC = assay: Immunofluorescence microscopy, actin cytoskeleton and cell morphology; assay type: cell-based, rat; settings: 30 minutes at 37° C., peptide 1 pM or VN 1 μg/ml
Method: (§3) As previously described (Degryse et al., 1999; 2004) 15,000-25,000 cells (20-40% confluence), were seeded on glass coverslips in 2 cm^2 well, cultured for 24 hours in DMEM plus 10% FCS, washed with PBS and cultured for another 24 hours without FCS. After stimulation, RSMC were fixed for 20 min at RT with 3% paraformaldehyde, 2% sucrose in PBS pH 7.5, washed 3 times with PBS-BSA 0.2%, permeabilized with 20 mM hepes pH 7.4, 300 mM saccharose, 50 mM NaCl, 3 mM MgCl2, 0.5% (v/v) Triton X-100 for 3 min at 4° C., and washed 3 times with PBS-BSA 0.2%. RSMC were incubated in PBS-BSA 2% for 15 min at 37° C., then with anti-Stat1 primary antibodies for 30 min at 37° C., washed 3 times with PBS-BSA 0.2%, and further incubated with PBS-BSA 2% for 15 min at 37° C. Cells were stained with the secondary TRITC-antibody and with FITC-phalloidin for visualization of filamentous actin, for 30 min at 37° C. DAPI (4′,6-diamidino-2-phenylindole, Roche) was used to label the nucleus. Finally, after 3 washes with PBS-BSA 0.2%, one with distilled water, coverslips were mounted with 20% (w/v) Mowiol. Fluorescence Photographs were taken with a Zeiss Axiophot microscope

Stat1 = assay: Immunofluorescence microscopy, Stat1 distribution; assay type: cell-based, rat; settings: RSMC; for Stat1 activation and translocation into the nucleus: 30 minutes at 37° C., peptide 1 pM or VN 1 μg/ml
Method: as §3
To quantify the activation of Stat1, random pictures were taken and nuclei positively stained for Stat1 were counted and expressed in percent.

[4] = test system: human HT1080 fibrosarcoma cells; assay: Matrigel invasion assay; assay type: cell-based; settings: for stimulation of Matrigel invasiveness of HT1080 cells: substance alone, 24 hours at 37° C.
KG-1 cells = assay: Chemotaxis assay of non adherent cells, Boyden micro-chamber; assay type: cell-based, human
Method: Chemotaxis assay of non adherent cells was performed as described (Degryse et al., 2001; FEBS lett. 505: 249-254) using modified Boyden micro-chamber with the exception that the filter was not treated. 50,000 cells were added in the top well in serum-free RPMI medium and allowed to migrate for 1 hour at 37° C. The molecules to be tested as chemoattractant were diluted in serum-free RPMI medium and added in the lower well of the Boyden chamber. Experiments were performed in triplicate. Results are the mean ±SD of the number of cells counted in five high power fields. Migration in the absence of chemoattractant is referred to as 100%.

[5] = test system: Rat Smooth Muscle Cells and HT1080 Human Fibrosarcoma Cells; assay: Boyden chamber assays, pleiotropic inhibition of chemotaxis; assay type: cell-based
Description: In Boyden chamber assays, D2A-Ala and GAAG inhibit not only VN-dependent and uPA-dependent chemotaxis (as reported above), but also EGF— and UTP-dependent chemotaxis. The effect is dose-dependent. Notice that the EGF-dependent and the UTP-dependent chemotaxis work through receptors (EGF-receptor and P2Y2 receptor, respectively), that are different among themselves and are different from those employed by uPA (uPAR) and VN (αvβ3). We conclude that these two inhibitors are general inhibitors of chemotaxis.

LB6-D1HD3 cells = assay: Chemotaxis assay, LB6-D1HD3 cells (uPAR lacking domain 2); assay type: cell-based, mouse
Method: as §1

uPAR-α5β1 complexes = biological target: T2, uPAR-α5β1 complexes (Homo sapiens, UniProt P05556+P08648); assay: Pull-down assay, 125I-suPAR with purified α5β1 integrin; assay type: binding; settings: in the presence of uPA
T2 construct: purchased Chemicon (integrins); American Diagnostica (uPA)
T2 sequence (P08648 42-894 limits assumed): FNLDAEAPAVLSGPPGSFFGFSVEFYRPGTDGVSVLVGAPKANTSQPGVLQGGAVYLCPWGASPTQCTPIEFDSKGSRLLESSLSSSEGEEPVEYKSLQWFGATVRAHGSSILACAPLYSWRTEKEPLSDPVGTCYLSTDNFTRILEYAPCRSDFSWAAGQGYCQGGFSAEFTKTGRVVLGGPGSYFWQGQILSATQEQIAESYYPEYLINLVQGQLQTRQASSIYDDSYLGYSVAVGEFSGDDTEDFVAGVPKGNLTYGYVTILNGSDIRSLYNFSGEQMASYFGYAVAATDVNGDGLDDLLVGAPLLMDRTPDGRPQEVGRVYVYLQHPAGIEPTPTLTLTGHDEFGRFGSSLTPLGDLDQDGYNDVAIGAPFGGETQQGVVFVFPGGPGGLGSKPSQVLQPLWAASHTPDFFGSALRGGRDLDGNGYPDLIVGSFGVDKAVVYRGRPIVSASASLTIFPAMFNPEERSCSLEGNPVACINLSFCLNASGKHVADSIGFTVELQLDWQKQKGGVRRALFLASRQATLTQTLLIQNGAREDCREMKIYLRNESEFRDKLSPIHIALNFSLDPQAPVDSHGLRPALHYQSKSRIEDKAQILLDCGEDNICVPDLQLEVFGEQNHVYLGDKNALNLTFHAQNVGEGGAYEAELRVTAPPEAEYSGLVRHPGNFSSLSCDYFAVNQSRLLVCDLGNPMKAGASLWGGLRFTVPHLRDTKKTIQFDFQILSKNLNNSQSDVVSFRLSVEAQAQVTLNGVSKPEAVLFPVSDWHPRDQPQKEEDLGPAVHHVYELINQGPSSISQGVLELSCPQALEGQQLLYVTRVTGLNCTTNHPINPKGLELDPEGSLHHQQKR
T2 sequence (P08648 895-1049 limits assumed): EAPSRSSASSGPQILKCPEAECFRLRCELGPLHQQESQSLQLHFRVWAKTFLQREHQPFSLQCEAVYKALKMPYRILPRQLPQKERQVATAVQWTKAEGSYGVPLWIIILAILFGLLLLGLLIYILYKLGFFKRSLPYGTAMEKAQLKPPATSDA
T2 sequence (P05556 21-798): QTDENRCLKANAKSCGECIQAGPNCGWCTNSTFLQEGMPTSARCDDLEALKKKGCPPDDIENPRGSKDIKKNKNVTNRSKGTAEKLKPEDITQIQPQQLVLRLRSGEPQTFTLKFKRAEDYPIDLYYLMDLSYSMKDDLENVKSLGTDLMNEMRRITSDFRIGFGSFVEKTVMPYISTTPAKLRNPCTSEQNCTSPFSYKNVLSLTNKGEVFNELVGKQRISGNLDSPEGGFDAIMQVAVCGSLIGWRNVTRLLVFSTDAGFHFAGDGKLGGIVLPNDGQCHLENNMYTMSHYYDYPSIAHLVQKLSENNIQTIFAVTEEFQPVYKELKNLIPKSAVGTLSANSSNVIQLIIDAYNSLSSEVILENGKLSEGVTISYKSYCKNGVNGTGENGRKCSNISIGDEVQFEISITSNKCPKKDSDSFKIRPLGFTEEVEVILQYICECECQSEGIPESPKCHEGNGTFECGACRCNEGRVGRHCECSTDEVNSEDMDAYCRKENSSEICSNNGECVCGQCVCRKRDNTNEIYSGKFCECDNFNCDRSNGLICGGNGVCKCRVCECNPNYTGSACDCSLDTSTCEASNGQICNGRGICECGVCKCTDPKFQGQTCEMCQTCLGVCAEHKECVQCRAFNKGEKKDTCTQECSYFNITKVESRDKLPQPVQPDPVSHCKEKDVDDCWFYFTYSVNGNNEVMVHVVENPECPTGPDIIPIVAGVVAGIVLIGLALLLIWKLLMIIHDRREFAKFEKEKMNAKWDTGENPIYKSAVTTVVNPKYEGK
Method: as §2

[6] = HT1080, at about the same concentration (around 1 pM)

IQEGAAGRPKDDR [D2A-Ala, D2A with two glutamic acids changed into two alanines]
cell migration in the presence of VN (HEK-293 cells): 94.50 ± 19.58 % of control | cell migration (HEK-293 cells): 110.19 ± 26.63 % of control | cell migration in the presence of VN (HEK-293-uPAR cells): 108.18 ± 13.90 % of control | cell migration (HEK-293-uPAR cells): 108.72 ± 17.37 % of control | inhibition of FN-induced migration ([1]; RSMC): inhibited | inhibition of LN-induced migration ([1]; RSMC): inhibited | stimulation of RSMC migration (chemotactic activity) ([1]; RSMC): failed to stimulate cell migration | inhibition of VN-induced RSMC migration ([1]; RSMC, attractant VN): completely abrogated | concentration at which an effect on VN-induced cell migration is already visible ([1]; VN-stimulated RSMC): 10 fM | concentration giving complete inhibition of VN-induced cell migration ([1]; VN-stimulated RSMC): 1 pM | inhibition of VN-induced migration [2]: totally inhibited | inhibition of VN-induced migration [3]: totally inhibited | effect on uPAR-αvβ3 co-immunoprecipitation (uPAR-αvβ3 complexes; in the presence of uPA): prevented | cell morphology and actin cytoskeleton organization (RSMC): did not promote the change of morphology and reorganization of actin cytoskeleton | Stat1 activation and translocation into the nucleus (Stat1): failed to activate Stat1 | inhibition of VN-induced translocation of Stat1 (Stat1; peptide 1 pM with VN 1 μg/ml): inhibited | inhibition of EGF-dependent invasion ([4]; HT1080, 100 pM): inhibit | inhibition of insulin-dependent invasion ([4]; HT1080, 100 pM): inhibit | inhibition of VN-induced invasiveness [4, 6]: inhibit | inhibition of uPA-induced invasiveness [4, 6]: inhibit | inhibition of FN-induced invasion ([4]; HT1080, at the same concentration): inhibit | stimulation of Matrigel invasiveness of HT1080 cells [4]: have no effects | inhibition of vitronectin (VN)-induced chemotaxis of KG-1 cells (KG-1 cells): inhibited | inhibition of VN-dependent chemotaxis [5]: inhibit | inhibition of uPA-dependent chemotaxis [5]: inhibit | inhibition of EGF-dependent chemotaxis ([5]; dose-dependent): inhibit | inhibition of UTP-dependent chemotaxis ([5]; dose-dependent): inhibit

IQEGEEGRPKDDR [D2A]
cell migration in the presence of VN (HEK-293 cells): 190.23 ± 35.24 % of control | cell migration (HEK-293 cells): 106.98 ± 11.78 % of control | cell migration in the presence of VN (HEK-293-uPAR cells): 400.88 ± 17.41 % of control | cell migration (HEK-293-uPAR cells): 325.48 ± 14.42 % of control | maximal increase of migration (LB6-D1HD3 cells; LB6-D1HD3 cells, at 10 pM, peptide per se): 2 fold | effect on response to VN of non-responsive LB6-D1HD3 cells (LB6-D1HD3 cells; with VN 1 μg/ml): restored the response to VN | stimulation of RSMC migration (chemotactic activity) ([1]; RSMC): equally active in stimulating migration | additivity of chemotactic effects with VN ([1]; RSMC, D2A 1 pM combined with VN 1 μg/ml): did not further increase cell migration | reduction of coimmunoprecipitated suPAR compared to uPA alone (uPAR-αvβ3 complexes; uPA plus peptide, αvβ3): approximately 50% | effect on uPA-induced co-immunoprecipitation of suPAR and α5β1 (uPAR-α5β1 complexes): can also prevent | cell morphology and actin cytoskeleton organization (RSMC): a complete change of morphology and cytoskeleton organization occurred | Stat1 activation and translocation into the nucleus (Stat1): induced its translocation into the nucleus | concentration of peak stimulation of Matrigel invasiveness ([4]; HT1080, dose-dependent): around 1 pM | stimulation of Matrigel invasiveness of HT1080 cells [4]: stimulate | chemotaxis of KG-1 cells (KG-1 cells; peptide as chemoattractant, 1 hour at 37° C.): stimulated migration

Source: patent US20080280833A1, “Therapeutic Peptides Derived from Urokinase Plasminogen Activator Receptor” (priority 2005, published 2008)
